In patent publication US8158560B2, “Insecticidal arylpyrroline compounds” (Bayer CropScience AG, priority 2009, dated 2012):

How the values were obtained:
Type in all cases: in vivo
[1] = test system: Spodoptera litura; assay: Biological Test Example 1: test against tobacco cutworm (Spodoptera litura) larvae, sweet potato leaf dip; details: foliar, 168 h, active compound concentration 100 ppm, third instar larvae, after 7 days, read-out: insecticidal activity
Procedure: (§1) Unless not mentioned otherwise, the test solutions were prepared as follows:
(§2) Containing as solvent: Dimethylformamide, 3 parts by weight; and as emulsifier: Polyoxyethylene alkyl phenyl ether, 1 part by weight
(§3) To prepare the test solution, 1 part by weight of an active compound is mixed with the above-mentioned amount of solvent containing the above-mentioned amount of emulsifier, and the mixture is diluted with water to the desired concentration.
Test Against Tobacco Cutworm (Spodoptera litura) Larvae
Leaves of sweet potato were immersed in the test solution at the appropriate concentration, and the leaves were dried in air. The leaves were then placed in a petri dish having a diameter of 9 cm, and ten Spodoptera litura at third instar larvae were released therein. The petri dishes were placed in a temperature-controlled chamber at 25° C.
After 2 days and 4 days more sweet potato leaves were added. After 7 days, the number of dead larvae was counted and the insecticidal activity was calculated. An insecticidal activity of 100% means that all larvae were killed, whereas an insecticidal activity of 0% means that no larva was killed. In the current test, the results of two petri dishes for each treatment were averaged.

[2] = test system: Tetranychus urticae; assay: Biological Test Example 2: test against two-spotted spider mite (Tetranychus urticae), spray on kidney bean; details: 168 h, active compound concentration 100 ppm, adult mites, after 7 days, read-out: acaricidal activity
Procedure: as §1, §2, §3
Test Against Two-Spotted Spider Mite (Tetranvchus urticae)
50 to 100 adult mites of Tetranychus urticae were inoculated to leaves of kidney bean at two-leaf stage planted in a pot of 6 cm in diameter. After one day, test solution at the appropriate concentration was sprayed thereon in a sufficient amount using a spray gun. After the spraying, the plant pot was placed inside a greenhouse, and after 7 days, the acaricidal activity was calculated. An acaricidal activity of 100% means that all mites were killed, whereas an acaricidal activity of 0% means that no mite was killed.

[3] = test system: Aulacophora femoralis; assay: Biological Test Example 3: test against cucurbit leaf beetle (Aulacophora femoralis), cucumber leaf dip; details: foliar, 168 h, active compound concentration 100 ppm, second instar larvae, after 7 days, read-out: insecticidal activity
Procedure: as §1, §2, §3
Test Against Cucurbit Leaf Beetle (Aulacophora femoralis)
Leaves of cucumber were immersed in the test solution at the appropriate concentration, and the leaves were dried in air. The leaves were then put in a plastic cup containing sterilized black soil and five Aulacophora femoralis at second instar larvae were released in the cup. The cups were placed in a temperature-controlled chamber at 25° C. After 7 days, the number of dead larvae was counted, and the insecticidal activity was calculated. An insecticidal activity of 100% means that all larvae were killed, whereas an insecticidal activity of 0% means that no larva was killed.

[4] = test system: organic phosphorus agent- and carbamate agent-resistant Myzus persicae; assay: Biological Test Example 4: test against organic phosphorus agent- and carbamate agent-resistant green peach aphid (Myzus persicae), spray on eggplant; details: active compound concentration 100 ppm; after 7 days
Procedure: as §1, §2, §3
Test Against Organic Phosphorus Agent- and Carbamate Agent Resistant Green Peach Aphid (Myzus persicae)
50 to 100 head of organic phosphorous agent- and carbamate agent-resistant Myzus persicae were inoculated to leaves of eggplant at two-leaf stage, planted in a pot of 6 cm in diameter. After one day, test solution at the appropriate concentration was sprayed thereon in a sufficient amount using a spray gun. After the spraying, the plant pot was placed inside a greenhouse, and after 7 days, the insecticidal rate was calculated.
An insecticidal activity of 100% means that all aphids were killed, whereas an insecticidal activity of 0% means that no aphid was killed.

[5] = test system: Spodoptera litura L2 stage; assay: Spodoptera litura root soaking test (PRODLI); details: 20 ppm, 4 dat
Procedure: Spodoptera litura—Root Soaking Test (PRODLI)
Insect: Spodoptera litura L2 stage;
Material: Culture media bottles for hydroponics: Plastic (A-PET) cups for test, square type;
Plant: Broccoli 5 leaf stage (ca. 12 cm high), soil around the roots was washed off just before the test;
Solvent pre-mixture “Sorpol SD” for root soaking test;
Sorpol SD: Sorpol BDB:Dimethylformamide=3:3:140
Procedure: Test solutions are prepared in the bottles at the appropriate concentration. The test plant root is dipped into the test solution in the bottle and kept in a test room. After 3 days, ⅓ part of the leaves of the plants is cut and put into the A-PET cup.
Into each test cup five larvae L2 are released, the cup is covered with a lid and stored at 25° C. and at a relative humidity of 50-60% and under 16L8D lighting conditions.
After the specified period of time the mortality in % is determined and the rate of death is calculated.

| Compound | pest or weed control at 100 ppm [1] [%] | pest or weed control at 100 ppm [2] [%] | pest or weed control at 100 ppm [3] [%] | insecticidal activity [4] [%] | Efficacy/day(s) of treatment [5] [%/4 dat] |
| --- | --- | --- | --- | --- | --- |
| O=C(CNC(=O)c1ccc(C2=NCC(c3cc(Cl)c(Cl)c(Cl)c3)(C(F)(F)F)C2)cc1C(F)(F)F)NC1CSC1 (centres unmarked) [Compound 3-7] | 100 | 100 | 100 | – | – |
| O=C(NC1CSC1)c1ccc(C2=NCC(c3cc(Cl)c(Cl)c(Cl)c3)(C(F)(F)F)C2)cc1C(F)(F)F (centres unmarked) [Compound 1-7, N-(thietan-3-yl)-4-[3-(3,4,5-trichlorophenyl)-3-(trifluoromethyl)-3,4-dihydro-2H-pyrrol-5-yl]-2-(trifluoromethyl)benzamide] | 100 | 100 | 100 | 100 | – |
| O=C(NC1CSC1)c1ccc(C2=NCC(c3cc(Cl)c(Cl)c(Cl)c3)(C(F)(F)F)C2)cc1Br (centres unmarked) [Compound 1-4, 2-Bromo-N-(thietan-3-yl)-4-[3-(3,4,5-trichlorophenyl)-3-(trifluoromethyl)-3,4-dihydro-2H-pyrrol-5-yl]benzamide] | 100 | – | 100 | – | – |
| O=C(NC1CSC1)c1ccc(C2=NCC(c3cc(C(F)(F)F)cc(C(F)(F)F)c3)(C(F)(F)F)C2)cc1Br (centres unmarked) [Compound 1-104, 4-{3-[3,5-Bis(trifluoromethyl)phenyl]-3-(trifluoromethyl)-3,4-dihydro-2H-pyrrol-5-yl}-2-bromo-N-(thietan-3-yl) benzamide] | 100 | – | 100 | – | – |
| Cc1cc(C2=NCC(c3cc(Cl)cc(Cl)c3)(C(F)(F)F)C2)ccc1C(=O)NC1CS(=O)(=O)C1 (centres unmarked) [Compound T-1] | – | – | – | – | 100 |
| O=C(CNC(=O)c1ccc(C2=NCC(c3cc(C(F)(F)F)cc(C(F)(F)F)c3)(C(F)(F)F)C2)cc1C(F)(F)F)NC1CSC1 (centres unmarked) [Compound 3-19, 4-{3-[3,5-Bis(trifluoromethyl)phenyl]-3-(trifluoromethyl)-3,4-dihydro-2H-pyrrol-5-yl}-N-[2-oxo-2-(thietan-3-ylamino)ethyl]-2-(trifluoromethyl)benzamide] | 100 | – | 100 | – | – |
| Cc1cc(C2=NCC(c3cc(Cl)c(Cl)c(Cl)c3)(C(F)(F)F)C2)ccc1C(=O)NC1CSC1 (centres unmarked) [Compound 1-10, 2-methyl-N-(thietan-3-yl)-4-[3-(3,4,5-trichlorophenyl)-3-(trifluoromethyl)-3,4-dihydro-2H-pyrrol-5-yl]benzamide] | 100 | 100 | 100 | 100 | – |
| O=C(NC1CS(=O)(=O)C1)c1ccc(C2=NCC(c3cc(Cl)c(Cl)c(Cl)c3)(C(F)(F)F)C2)cc1C(F)(F)F (centres unmarked) [Compound 1-9, N-(1,1-Dioxidothietan-3-yl)-4-[3-(3,4,5-trichlorophenyl)-3-(trifluoromethyl)-3,4-dihydro-2H-pyrrol-5-yl]-2-(trifluoromethyl)benzamide] | 100 | 100 | 100 | 100 | – |
| O=C(NC1CSC1)c1ccc(C2=NCC(c3cc(C(F)(F)F)cc(C(F)(F)F)c3)(C(F)(F)F)C2)cc1C(F)(F)F (centres unmarked) [Compound 1-16, 4-{3-[3,5-Bis(trifluoromethyl)phenyl}-3-(trifluoromethyl)-3,4-dihydro-2H-pyrrol-5-yl]-N-(thietan-3-yl)-2-(trifluoromethyl)benzamide] | 100 | 100 | 100 | 100 | – |
| Cc1cc(C2=NCC(c3cc(Cl)c(Cl)c(Cl)c3)(C(F)(F)F)C2)ccc1C(=O)NC1CS(=O)(=O)C1 (centres unmarked) [Compound 1-12, N-(1,1-Dioxidothietan-3-yl)-2-methyl-4-[3-(3,4,5-trichlorophenyl)-3-(trifluoromethyl)-3,4-dihydro-2H-pyrrol-5-yl]benzamide] | 100 | 100 | 100 | 100 | – |
| Cc1cc(C2=NCC(c3cc(Cl)c(Cl)c(Cl)c3)(C(F)(F)F)C2)ccc1C(=O)NC1C[S+]([O-])C1 (centres unmarked) [Compound 1-11, 2-Methyl-N-(1-oxidothietan-3-yl)-4-[3-(3,4,5-trichlorophenyl)-3-(trifluoromethyl)-3,4-dihydro-2H-pyrrol-5-yl]benzamide] | 100 | 100 | 100 | – | – |
| Cc1cc(C2=NCC(c3cc(C(F)(F)F)cc(C(F)(F)F)c3)(C(F)(F)F)C2)ccc1C(=O)NC1C[S+]([O-])C1 (centres unmarked) [Compound 1-20, 4-{3-[3,5-Bis(trifluoromethyl)phenyl]-3-(trifluoromethyl)-3,4-dihydro-2H-pyrrol-5-yl}-2-methyl-N-(1-oxidothietan-3-yl)benzamide] | 100 | 100 | 100 | – | – |
| Cc1cc(C2=NCC(c3cc(C(F)(F)F)cc(C(F)(F)F)c3)(C(F)(F)F)C2)ccc1C(=O)NC1CSC1 (centres unmarked) [Compound 1-19, 4-{3-[3,5-Bis(trifluoromethyl)phenyl]-3-(trifluoromethyl)-3,4-dihydro-2H-pyrrol-5-yl}-2-methyl-N-(thietan-3-yl)benzamide] | 100 | 100 | 100 | 100 | – |
| O=C(NC1C[S+]([O-])C1)c1ccc(C2=NCC(c3cc(Cl)c(Cl)c(Cl)c3)(C(F)(F)F)C2)cc1C(F)(F)F (centres unmarked) [Compound 1-8, N-(1-Oxidothietan-3-yl)-4-[3-(3,4,5-trichlorophenyl)-3-(trifluoromethyl)-3,4-dihydro-2H-pyrrol-5-yl]-2-(trifluoromethyl)benzamide] | 100 | 100 | 100 | – | – |
| Cc1cc(C2=NOC(c3cc(Cl)cc(Cl)c3)(C(F)(F)F)C2)ccc1C(=O)NC1CS(=O)(=O)C1 (centres unmarked) [ExNo A10 of WO 2009/080250] | – | – | – | – | 0 |
